Measurements: patent publication US20160194336A1, “P38 MAPK INHIBITORS FOR THE TREATMENT OF INFLAMMATORY DISEASES” (ALLINKY BIOPHARMA, priority 2012, published 2016)

Assays:
[1] = target: T1, p38αR186A (Homo sapiens, UniProt Q16539, R186A); assay: site-mutated p38 phosphorylation cascade assay, R186A mutant; assay type: biochemical; conditions: compound 10 uM
T1 construct: made in house; host or cells: E. coli XL10-Gold
Method: (§1) After preincubation, MKK6 (ProQinase), ATF2 (ProQinase) and ATP were added to a final concentration of 10 nM, 5 μM and 10 μM respectively, then incubated 40 minutes at 30° C. and analyzed with ADP-Glo™.
(§2) Replacement of specific residues arginine 186 and 189 of p38α (pGEX4T-1-p38α) for alanine was performed with the QuikChange Lightining Site-Directed Mutagenesis Kit (Agilent Technologies). The following oligonucleotides were used for the arginine 186 to alanine substitution: forward primer: 5′-SEQ ID NO 7-3′; reverse primer: 5′-SEQ ID NO 8-3′. Oligonucleotides used for the arginine 189 to alanine substitution were: forward primer: 5′-SEQ ID NO 9-3′; reverse primer: 5′-SEQ ID NO 10-3′. Mutations were validated by sequencing (Genomic Unit, Parque Cientifico de Madrid). E. coli XL10-Gold ultracompentent cells (Agilent Technologies) were transformed with the vector plasmids containing p38αWT and mutants. For the expression of recombinant p38α transformed cells were cultured overnight at 37° C. in 50 ml of fresh LB medium containing ampicillin (100 μg/ml). After that, culture was diluted in fresh LB to A595=0.4 and grown for approximately 1 h at 37° C. until exponential growth and then induced with Isopropyl-β-D-thiogalactopyranoside (IPTG) 1 mM for 5 h. The cells were collected by centrifugation and cell pellet were resuspended in 50 ml of cold lysis buffer: PBS pH 7.4, EDTA 10 mM, PMSF 1 mM, Benzamidine 0.2 mM, DTT 5 mM, Triton X-100 1% and Lysozyme 1 mg/ml. The soluble and insoluble fractions were separated by centrifugation (16,000 g for 20 min). The soluble fraction was incubated for 2 hours with 1 ml of pre-equilibrated Glutathione Sepharose 4B (GE Healthcare) and the resin was extensively washed in a column with 200 ml of binding buffer: PBS, PMSF 1 mM and benzamidine 0.2 mM. Proteins were eluted with 1 ml of Tris-HCl 50 mM pH 8.0 and reduced glutathione 20 mM. 20% glycerol was added to purified proteins and stored at −80° C. Protein concentration and purity was assessed by SDS-PAGE. Kinase activity was measured by ADP-glo kit using MKK6 as activator and ATF2 as substrate. Activity recorded for p38αR186A and p38αR189A were 15.5% and 4.8%, respectively (n=4) related to wild type protein.

[2] = system: TNF-α secretion, THP-1 cells; assay: Inhibition of TNF-α secretion by LPS-stimulated THP-1; assay type: cell-based; conditions: Homo sapiens, THP-1, 3 h, monocytes with LPS, read-out: TNF abetment
Method: Inhibition of TNF-α Secretion by a Human Monocytic Cell Line, THP-1.
THP-1 cells, growing in log phase, were collected by centrifugation and resuspended in RPMI 1640 (Sigma Aldrich), to a final cell concentration of 2×10^6 cells/ml. Cells were plated into 24-well plates (BD Biosciences). Dilutions of compounds in dimethyl sulfoxide (DMSO) were added to the culture to a final concentration M. The final DMSO concentration was 0.5%. The cells […] suspensions were preincubated with compounds for 1 h at 37° C. in a 5% C02 humidified atmosphere before the addition of LPS (Sigma Aldrich, L2654) to a final concentration of 2 μg/ml. After that, cells were incubated for 3 h followed by centrifugation to pellet cells. Cell supernatants were stored at 4° C. until Human analysis for TNF-α content. TNF-α levels were determined by ELISA (TNF Biotrak, GE Healthcare) following the manufacturer's directions. The percentage inhibition was calculated for each compound concentration tested, and the IC50 was calculated for each compound.

[3] = system: THP-1 cells; assay: survival of monocytes with LPS; assay type: cell-based, human
[4] = target: T2, p38alpha wt (Homo sapiens, UniProt Q16539); assay: site-mutated p38 phosphorylation cascade assay, wild type; assay type: biochemical; conditions: compound 10 uM
T2 construct: made in house; host or cells: E. coli XL10-Gold
T2 sequence (Q16539 whole entry): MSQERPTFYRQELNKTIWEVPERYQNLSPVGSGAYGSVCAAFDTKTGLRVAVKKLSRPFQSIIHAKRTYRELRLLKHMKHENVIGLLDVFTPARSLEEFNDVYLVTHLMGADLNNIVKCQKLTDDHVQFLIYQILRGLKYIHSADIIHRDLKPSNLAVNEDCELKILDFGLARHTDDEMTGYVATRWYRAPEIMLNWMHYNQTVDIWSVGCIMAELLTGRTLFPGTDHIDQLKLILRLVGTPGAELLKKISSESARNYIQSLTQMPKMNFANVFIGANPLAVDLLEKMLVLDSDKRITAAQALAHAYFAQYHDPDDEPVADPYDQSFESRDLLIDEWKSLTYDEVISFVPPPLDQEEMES
Method: as §1, §2

[5] = target: T3, p38αR189A (Homo sapiens, UniProt Q16539, R189A); assay: site-mutated p38 phosphorylation cascade assay, R189A mutant; assay type: biochemical; conditions: compound 10 uM
T3 construct: made in house; host or cells: E. coli XL10-Gold
T3 sequence (Q16539 whole entry R189A): as the sequence (Q16539 whole entry) above, with R189A counted along it
Method: as §1, §2

T1 sequence (Q16539 whole entry R186A): as the sequence (Q16539 whole entry) above, with R186A counted along it

SMILES | inhibition at 10 µM [1] [%] | inhibition at 1 µM [2] [%] | inhibition at 10 µM [2] [%] | Cell survival ([3]; 1 uM) [%] | Cell survival ([3]; 10 uM) [%] | inhibition at 10 µM [4] [%] | inhibition at 10 µM [5] [%] | inhibition at 0.1 µM [2] [%] | Cell survival ([3]; 0.1 uM) [%]
CCOC(=O)c1ccc(Nc2nc3nonc3nc2NN=Cc2cccc3ccccc23)cc1 [Compound 12] | 39 | -6 | -16 | 97 | 99 | 81 | 14 | – | –
CCOC(=O)c1ccc(Nc2nc3nonc3nc2N2CCN(Cc3cccc(Cl)c3)CC2)cc1 [Compound 13] | 22 | 13 | 32 | 93 | 86 | 34 | 14 | – | –
CCOC(=O)c1ccc(Nc2nc3nonc3nc2N2CCN(Cc3ccccc3C)CC2)cc1 [Compound 14] | 18 | – | 17 | – | 81 | 31 | 17 | – | –
CCOC(=O)c1ccc(Nc2nc3nonc3nc2N2CCC(Sc3ccc(C)cc3)CC2)cc1 [Compound 15] | 28 | 17 | 32 | 92 | 97 | 61 | 20 | – | –
CCOC(=O)c1ccc(Nc2nc3nonc3nc2N2CCC(Oc3ccccc3OC)CC2)cc1 [Compound 16] | 15 | 26 | 35 | 95 | 93 | 32 | 17 | 16 | 88
CCOC(=O)c1ccc(Nc2nc3nonc3nc2N2CCC(C(=O)c3ccccc3)CC2)cc1 [Compound 17] | 19 | 34 | 69 | 98 | 97 | 56 | 13 | 21 | 99
CC(C)NC(=O)c1ccc(Nc2nc3nonc3nc2N2CCC(Cc3ccccc3)CC2)cc1 [Compound 18] | 37 | 34 | 56 | 83 | 79 | 62 | 33 | 1 | 90
CCCNC(=O)c1ccc(Nc2nc3nonc3nc2N2CCC(Cc3ccccc3)CC2)cc1 [Compound 19] | 35 | -21 | -10 | 97 | 93 | 71 | 32 | -47 | 103
CC(C)NC(=O)c1cccc(Nc2nc3nonc3nc2N2CCC(Cc3ccccc3)CC2)c1 [Compound 20] | 38 | 55 | 36 | 96 | 81 | 71 | 22 | -9 | 101
Cc1cc(C(=O)NCC(C)C)ccc1Nc1nc2nonc2nc1N1CCC(Cc2ccccc2)CC1 [Compound 21] | 48 | 18 | 20 | 95 | 94 | 83 | 38 | -15 | 98
Cc1ccc(SC2CCN(c3nc4nonc4nc3-c3cccc(C(=O)OC(C)C)c3)CC2)cc1 [Compound 22] | 16 | 17 | 10 | 94 | 99 | 31 | 6 | -2 | 97
CCCNC(=O)c1ccc(Nc2nc3nonc3nc2N2CCC(Sc3ccc(C)cc3)CC2)cc1 [Compound 23] | 48 | 41 | 60 | 95 | 88 | 90 | 26 | 26 | 96
CCOC(=O)c1ccc(NNc2nc3nonc3nc2N2CCC(Cc3ccccc3)CC2)cc1 [Compound 24] | 43 | 12 | 67 | 98 | 105 | 66 | 39 | -23 | 104
CCOC(=O)c1ccc(Nc2nc3nonc3nc2N2CCC(Oc3ccc(Cl)cc3)CC2)cc1 [Compound 25] | 14 | 61 | 102 | 61 | 42 | 59 | 30 | 12 | 88
CCOC(=O)c1ccc(Nc2nc3nonc3nc2Nc2ccc(C(=O)c3ccccc3)cc2)cc1 [Compound 26] | 40 | 30 | 8 | 87 | 83 | 73 | 28 | 27 | 86
CCOC(=O)c1ccc(Nc2nc3nonc3nc2Nc2ccc(Oc3ccncc3)cc2)cc1 [Compound 27] | 72 | 58 | 76 | 99 | 72 | 88 | 47 | 28 | 103
CCOC(=O)c1ccc(Nc2nc3nonc3nc2N2CCC(Sc3ccc(Cl)cc3)CC2)cc1 [Compound 28] | 41 | 24 | 36 | 87 | 88 | 86 | 27 | 17 | 88
O=C(O)c1ccc(Nc2nc3nonc3nc2N2CCC(Cc3ccccc3)CC2)cc1 [Compound 29] | 21 | 11 | 44 | 103 | 92 | 23 | 6 | 7 | 103
O=C([O][Na+])c1ccc(Nc2nc3nonc3nc2N2CCC(Cc3ccccc3)CC2)cc1 [Compound 30] | 19 | 16 | 41 | 97 | 93 | 25 | 9 | 12 | 99
COC(=O)c1ccc(Nc2nc3nonc3nc2N2CCC(Oc3ccc(Cl)cc3)CC2)cc1 [Compound 31] | 35 | 43 | 60 | 100 | 92 | 84 | 27 | 20 | 101
